21 compounds from US20260125397A1, “MK2 DEGRADERS AND USES THEREOF” (Kymera Therapeutics, Inc., priority 2023, published 2026) can be followed below.

The target of experiment [1] is T1, MK2 (Homo sapiens, UniProt P49137). As to the kind of experiment: MK2 degradation in human SW1353 cells (MSD, 24 h). In kind it is cell-based. Further details: endogenous in cells; host or cells: SW-1353 (ATCC HTB-94). The settings on record: for Dmax: read-out: MK2 MSD SW 1353 24 h Dmax %; for DC50: read-out: MK2 MSD SW1353 degradation 24 h GMean External Abs DC50. The method, then: The human chondrocyte cancer cell line SW-1353 (ATCC(HTB-94)) was cultured in 96 well plates (Coming 3894) at a density of 200,000 cells per well in 100 microlitres in complete growth medium of Leibovitz's L-15 Medium (Gibco) pus 10% fetal Bovine Serum (Coming) and Penicillin/Streptomycin (SolarBio) at 37 degrees Celsius. A serial dilution of each compound (usually 3 to 5 fold serial dilutions up to 10 separate concentration points) was added to individual wells from a 10 millimolar stock solution, at a background concentration of 0.10% DMSO and the cells were shaken at 600 rpm for 5 minutes and then were cultured for 24 hours at 37 degrees Celsius. Separately, a custom MSD (MesoScaleDiscovery, L15XA-3) plate for detection of human MK2 was prepared by coating the plate with the commercial AbCam ab247272 reagent in 1× Phosphate Buffered Saline at 40 microlitres per well and incubated at 4 degrees Celsius overnight. The next day, the MSD plate was washed with 150 microlitres of Tween buffered saline, blocked with MSD blocking buffer (3% Blocker A from MSD), and washed again.
T1 sequence (P49137 whole entry): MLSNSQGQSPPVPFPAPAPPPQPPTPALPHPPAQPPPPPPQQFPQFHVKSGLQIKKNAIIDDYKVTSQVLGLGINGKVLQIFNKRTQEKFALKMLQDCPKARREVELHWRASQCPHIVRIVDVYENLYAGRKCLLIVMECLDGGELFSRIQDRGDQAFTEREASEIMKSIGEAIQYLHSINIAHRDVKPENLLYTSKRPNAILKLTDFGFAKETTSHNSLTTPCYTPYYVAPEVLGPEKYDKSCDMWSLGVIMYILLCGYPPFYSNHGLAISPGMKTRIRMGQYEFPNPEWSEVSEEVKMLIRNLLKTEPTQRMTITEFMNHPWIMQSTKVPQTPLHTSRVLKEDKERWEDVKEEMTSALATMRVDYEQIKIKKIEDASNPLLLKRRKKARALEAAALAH
The cell plate was centrifuged at 3,200 g for 5 minutes and the supernatant was discarded and 100 microlitres of RIPA lysis buffer (containing proteinase inhibitors, Boston BioProducts BP-115D) was added and the plate was sealed and shaken on ice for 20 minutes. The plate was centrifuged as before and 70 microlitres of sample lysate was added to the MSD plates and they were shaken at room temperature for 1 hour at 600 rpm. The MSD plate was washed 3 times as before and then the primary MK2 detection antibody (Santa Cruz sc-100393) was added at a final concentration of 1 microgram per ml at 25 microlitres per well and shaken at room temperature for 1 hour at 600 rpm.
(§1) After 3 more washes, the secondary detection antibody (SULFO-Tag anti rabbit antibody R32AB-5) was added at a final concentration of 1 microgram per ml at 25 microlitres per well and shaken at room temperature for 1 hour at 600 rpm. After 3 more washes, the 1X MSD (diluted from 5X concentrate with water) reading buffer was added at 150 microlitres per well and read on the MSD instrument Meso Sector S 600.
The inhibition/degradation curves and DC50 values were plotted and calculated using XL Fit (version v5.3.1.3) using equation 201 and a 4 parameter logistic model whereby fit=(A+((B−A)/(1+((x/C)D))) where A is the Bottom and B is the Top and C is the IC50 and D is the slope and high C is the signal for the DMSO treated cells and Low C is the signal is the signal for the lysis buffer.

The target in experiment [2] is T1, MK2. Nature of the experiment: MK2 degradation in human THP-1 monocytic cells (MSD, 24 h). In kind it is cell-based. Further details: endogenous in cells. The following applies: THP-1 cells; for DC50: read-out: MK2 MSD THP-1 degradation 24 h GMean External Abs DC50. The method, then:
The human monocytic cancer cell line THP-1 (ATCC (TIB-202)) was cultured in 96 well plates (Coming 3894) at a density of 200,000 cells per well in 100 microlitres in complete growth medium of RPMI 1640 (Gibco) pus 10% fetal Bovine Serum (Coming) and Penicillin/Streptomycin (SolarBio) at 37 degrees Celsius and 5% CO2. A serial dilution of each compound (usually 3 to 5 fold serial dilutions up to 10 separate concentration points) was added to individual wells from a 10 millimolar stock solution, at a background concentration of 0.1% DMSO and the cells were shaken at 600 rpm for 5 minutes and then were cultured for 24 hours at 37 degrees Celsius and 5% carbon dioxide. Separately, a custom MSD (MesoScaleDiscovery, L15XA-3) plate for detection of human MK2 was prepared by coating the plate with the commercial AbCarn ab247272 reagent in 1× Phosphate Buffered Saline at 40 microlitres per well and incubated at 4 degrees Celsius overnight. The next day, the MSD plate was washed with 150 microlitres of Tween buffered saline, blocked with MSD blocking buffer (3% BlockerA from MSD), and washed again.
The cell plate was centrifuged at 3,200 g for 5 minutes and the supernatant was discarded and 100 microlitres of RIPA lysis buffer (containing proteinase inhibitors, Boston BioProducts BP-115D) was added and the plate was sealed and shaken on ice for 20 minutes. The plate was centrifuged as before and 70 microlitres of sample lysate was added to the MSD plates and they were shaken at room temperature for I hour at 600 rpm. The MSD plate was washed 3 times as before and then the primary MK2 detection antibody (Santa Cruz sc-100393) was added at a final concentration of 1 microgram per ml at 25 microlitres per well and shaken at room temperature for 1 hour at 600 rpm.
as §1
The inhibition/degradation curves and DC50 values were plotted and calculated using XL Fit (version v5.3.1.3) using equation 201 and a 4 parameter logistic model whereby fit=(A+((B−A)/(1+((x/C)D))) where A is the Bottom and B is the Top and C is the IC50and D is the slope and high C is the signal for the DMSO treated cells and Low C is the signal is the signal for the lysis buffer.

SMILES strings stand for the structures.

By Dmax is commonly meant the greatest extent of degradation seen. A word on the DC50: it is the concentration giving 50% degradation.

On to `C[C@@H]1CNc2c(sc3ccc4nc(N5CCN(CC6CCC7(CC6)CN(c6ccc8c(N9CCC(=O)NC9=O)cncc8c6)C7)CC5)ccc4c23)C(=O)N1` [I-23], for which, on MK2 [1], the Dmax was greater than 75% and the DC50 was less than 1 nM. Also, at MK2 [2], the Dmax is greater than 75% and the DC50 was less than 1 nM.

With `Cn1c(=O)n(C2CCC(=O)NC2=O)c2ccc(N3CC(CN4CCN(c5ccc(-c6nccc(-c7cc8c([nH]7)C7(CC7)CNC8=O)n6)cc5OC5CC5)CC4)C3)cc21` (stereo not drawn) [I-47], the greatest degradation seen (Dmax) on MK2 [1] and on MK2 [2] was greater than 50% throughout. Besides, the DC50 at MK2 [1] was greater than 100 nM; at MK2 [2] it was less than 1 nM.

As for `C[C@@H]1CNc2c(sc3ccc4nc(N5CCC(OC6CCC7(CC6)CN(c6ccc8c(c6)n(C)c(=O)n8C6CCC(=O)NC6=O)C7)CC5)ccc4c23)C(=O)N1` (stereo partly drawn) [I-36], at MK2 [1], the maximal degradation (Dmax) was greater than 75% and the DC50 is less than 1 nM. Besides, at MK2 [2], the Dmax is greater than 75% and the DC50 was less than 1 nM.

With `Cn1c(=O)n(C2CCC(=O)NC2=O)c2ccc(N3CCN(CC#Cc4ccc(-c5nccc(-c6cc7c([nH]6)C6(CC6)CNC7=O)n5)cc4)CC3)cc21` (stereo not drawn) [I-51], at MK2 [1], the Dmax was greater than 50% and the DC50 fell in the range of 1 to 10 nM. Besides, on MK2 [2], the Dmax is greater than 75% and the DC50 is less than 1 nM.

For `C[C@@H]1CNc2c(sc3ccc4nc(N5CCN(C[C@H]6C[C@]7(CCN(c8ccc9c(c8)n(C)c(=O)n9C8CCC(=O)NC8=O)C7)C6)CC5)ccc4c23)C(=O)N1` (stereo partly drawn) [I-39], on MK2 [1], the Dmax was greater than 50% and the half-maximal degradation concentration (DC50) is less than 1 nM. Moreover, on MK2 [2], the Dmax was greater than 50% and the half-maximal degradation concentration (DC50) is less than 1 nM.

`C[C@@H]1CNc2c(sc3ccc4nc(N5CCN(CCC6CC7(CCN(C(=O)c8ccc(Cl)c(N9CCC(=O)NC9=O)c8)CC7)C6)CC5)ccc4c23)C(=O)N1` [I-35]: on MK2 [1], the Dmax is greater than 75% and the DC50 is less than 1 nM. Moreover, on MK2 [2], the Dmax was greater than 75% and the DC50 was less than 1 nM.

Regarding `COc1cc(-c2nccc(-c3cc4c([nH]3)C3(CC3)CNC4=O)n2)ccc1N1CCN(CC2CN(c3ccc4c(c3)n(C)c(=O)n4C3CCC(=O)NC3=O)C2)CC1` (stereo not drawn) [I-54], the Dmax is greater than 50% at MK2 [1] and 50 to 75% on MK2 [2]. Moreover, the DC50 on MK2 [1] and on MK2 [2] was less than 1 nM in each case.

For the compound `C[C@@H]1CNc2c(sc3ccc4nc(N5CCC(CN6CCC7(CC6)CN(c6ccc8c(c6)n(C)c(=O)n8C6CCC(=O)N(C)C6=O)C7)CC5)ccc4c23)C(=O)N1` (stereo partly drawn) [I-52], at MK2 [1], the Dmax was greater than 75% and the DC50 was 1 to 10 nM. On MK2 [2], the Dmax is greater than 75% and the half-maximal degradation concentration (DC50) was greater than 100 nM.

For `Cn1c(=O)n(C2CCC(=O)NC2=O)c2cccc(OCCN3CCN(c4ccc(-c5nccc(-c6cc7c([nH]6)C6(CC6)CNC7=O)n5)c(F)c4)CC3)c21` (stereo not drawn) [I-24], on MK2 [1], the greatest degradation seen (Dmax) was greater than 75% and the DC50 is 1 to 10 nM. Besides, at MK2 [2], the Dmax is greater than 75% and the DC50 was less than 1 nM.

As for `Cn1c(=O)n(C2CCC(=O)NC2=O)c2ccc(N3CC(CN4CCN(c5ccc(-c6cc(-c7cc8c([nH]7)C7(CC7)CNC8=O)ncn6)cc5)CC4)C3)cc21` (stereo not drawn) [I-30], on MK2 [1], the Dmax was in the range of 50 to 75% and the DC50 is less than 1 nM. Also, at MK2 [2], the Dmax lay within 50 to 75% and the DC50 was less than 1 nM.

Regarding `Cn1c(=O)n(C2CCC(=O)NC2=O)c2ccc(N3CC(CN4CCN(c5ccc(-c6cc(-c7cc8c(o7)C7(CC7)CNC8=O)ccn6)cc5)CC4)C3)cc21` (stereo not drawn) [I-28], at MK2 [1], the Dmax was greater than 75% and the DC50 was less than 1 nM. At MK2 [2], the Dmax was greater than 75% and the DC50 is less than 1 nM.

Take `Cn1c(=O)n(C2CCC(=O)NC2=O)c2ccc(N3CC(CN4CCN(c5ccc(-c6nccc(-c7cc8c([nH]7)C7(CC7)CNC8=O)n6)cc5C5CC5)CC4)C3)cc21` (stereo not drawn) [I-49]: the Dmax was greater than 50% at MK2 [1] and 50 to 75% on MK2 [2]. The DC50 on MK2 [1] was 10 to 100 nM; at MK2 [2], less than 1 nM.

With `C[C@@H]1CNc2c(sc3ccc4nc(N5CC[C@H](N(C)C6CC7(CCN(c8ccc9c(c8)n(C)c(=O)n9C8CCC(=O)NC8=O)CC7)C6)C(F)(F)C5)ccc4c23)C(=O)N1` (stereo partly drawn) [I-21], on MK2 [1], the Dmax was greater than 75% and the DC50 was less than 1 nM. Further, at MK2 [2], the Dmax was greater than 75% and the DC50 was less than 1 nM.

Consider `C[C@@H]1CNc2c(sc3ccc4nc(N5CCN(CCC6CCC7(CC6)CCN(C(=O)c6ccc(Cl)c(N8CCC(=O)NC8=O)c6)CC7)CC5)ccc4c23)C(=O)N1` [I-26], for which the Dmax at MK2 [1] and at MK2 [2] was greater than 75% each time. In addition, the values for the DC50 on MK2 [1] and on MK2 [2] were 1 to 10 nM and less than 1 nM, respectively.

Turning to `C[C@@H]1CNc2c(sc3ccc4nc(N5CCC(CN6CCC(N7CC(c8ccc9c(c8)n(C)c(=O)n9C8CCC(=O)NC8=O)C7)CC6)CC5)ccc4c23)C(=O)N1` (stereo partly drawn) [I-43], at MK2 [1], the Dmax was greater than 75% and the DC50 is less than 1 nM. Moreover, at MK2 [2], the Dmax is greater than 75% and the DC50 was less than 1 nM.

Regarding `Cn1c(=O)n(C2CCC(=O)NC2=O)c2ccc(N3CC(CN4CCC(n5cc(-c6nccc(-c7cc8c([nH]7)C7(CC7)CNC8=O)n6)cn5)CC4)C3)cc21` (stereo not drawn) [I-44], on MK2 [1], the Dmax was greater than 50% and the DC50 is greater than 100 nM. At MK2 [2], the greatest degradation seen (Dmax) was greater than 50% and the DC50 was greater than 100 nM.

With `C[C@@H]1CNc2c(sc3ccc4nc(N5CCN(C6CC7(CCN(c8ccc(NC9CCC(=O)NC9=O)cc8F)CC7)C6)CC5)ccc4c23)C(=O)N1` (stereo partly drawn) [I-25], on MK2 [1], the Dmax is greater than 75% and the DC50 was in the range of 1 to 10 nM. At MK2 [2], the Dmax was greater than 75% and the DC50 was less than 1 nM.

On to `C[C@@H]1CNc2c(sc3ccc4nc(N5CCC(N(CC(F)F)C6CC7(CCN(c8ccc9c(c8)n(C)c(=O)n9C8CCC(=O)NC8=O)CC7)C6)CC5)ccc4c23)C(=O)N1` (stereo partly drawn) [I-46], for which the Dmax at MK2 [1] and at MK2 [2] was greater than 75% in each case. Moreover, the DC50 at MK2 [1] and on MK2 [2] was less than 1 nM in each case.

`Cn1c(=O)n(C2CCC(=O)NC2=O)c2ccc(N3CC(CN4CCN(c5ccc(-c6nccc(-c7cc8c([nH]7)C(C)(C)CNC8=O)n6)cc5)CC4)C3)cc21` (stereo not drawn) [I-22]: at MK2 [1], the Dmax is greater than 75% and the DC50 is less than 1 nM. Besides, at MK2 [2], the maximal degradation (Dmax) was greater than 75% and the DC50 was less than 1 nM.

With `C[C@@H]1CNc2c(sc3ccc4nc(N5CCC(N(CC(F)(F)F)C6CC7(CCN(c8ccc9c(c8)n(C)c(=O)n9C8CCC(=O)NC8=O)CC7)C6)CC5)ccc4c23)C(=O)N1` (stereo partly drawn) [I-27], the Dmax on MK2 [1] and at MK2 [2] was greater than 75% each time. Further, the DC50 on MK2 [1] is 1 to 10 nM; at MK2 [2], less than 1 nM.

With `C[C@@H]1CNc2c(sc3ccc4nc(N5CCN(C[C@H]6C[C@@]7(CCN(c8ccc9c(c8)n(C)c(=O)n9C8CCC(=O)NC8=O)C7)C6)CC5)ccc4c23)C(=O)N1` (stereo partly drawn) [I-40], on MK2 [1], the Dmax was greater than 75% and the DC50 was less than 1 nM. Moreover, at MK2 [2], the maximal degradation (Dmax) was greater than 75% and the DC50 was less than 1 nM.
